# Source: publication PMC2748101, “Transcriptome analysis of the responses of Staphylococcus aureus to antimicrobial peptides and characterization of the roles of vraDE and vraSR in antimicrobial resistance” (BMC Genomics, 2009)
# Several values for one entry are separate records, joined by “and”; a condition that tells them apart may be missing. Equal entries are not always repeated. Where a SMILES comes first, the peptide text is derived from it. Bridges are numbered along the chain shown (N, C = ends). Where no end group is shown, it is not given here. [ ]: non-standard residue; d: D form. The star is where a group is joined. Ileψ(thiazoline)Cys = CC[C@H](C)[C@H](N)C1=N[C@H](C(=O)*)CS1; dOrn = NCCC[C@@H](N)C(=O)O
# Columns and labels:
# ΔvraDE/ RN4220 = details: Mueller-Hinton broth, 16-24 h, 37°C, two-fold dilution series, performed twice
# ΔvraSR/ RN4220 = details: Mueller-Hinton broth, 16-24 h, 37°C, two-fold dilution series, performed twice
# S. aureus Newman [1] = details: for MIC: S. aureus Newman, Mueller-Hinton broth, 16-24 h, 37°C, two-fold dilution series, performed twice
# ΔvraDE/S. aureus Newman = details: Mueller-Hinton broth; for MIC: ΔvraDE/S. aureus Newman, 16-24 h, 37°C, two-fold dilution series, performed twice
# S. aureus RN4220 = details: Mueller-Hinton broth, 16-24 h, 37°C, two-fold dilution series, performed twice
# S. aureus Newman [2] = assay: qRT-PCR of gene induction in treated wild-type cells; type: cell-based, Staphylococcus aureus; details: 10 min; for Fold induction SA0205 / Fold induction groEL / Fold induction prsA / Fold induction vraD: 5 × MIC (temporin-L-NH2 subinhibitory 2 μg/ml, pentaglycine 20 μg/ml), treated/untreated, mean of three experiments (SD)
# ΔvraSR/S. aureus Newman = details: for Difference in MIC (increased sensitivity), ΔvraSR mutant versus wild-type / MIC: Mueller-Hinton broth; for MIC: ΔvraSR/S. aureus Newman, 16-24 h, 37°C, two-fold dilution series, performed twice; for Effect of the ΔvraSR mutation on sensitivity: MIC, 100%, 50% (LL-37, nisin, Pep5) or 25% (hBD3) Mueller-Hinton broth
# [3] = test system: wild-type S. aureus Newman; type: cell-based, Staphylococcus aureus
# S. aureus Newman [4] = type: cell-based, Staphylococcus aureus
molecule,measurement,setting,value
CC[C@H](C)[C@H](N)C1=N[C@H](C(=O)N[C@@H](CC(C)C)C(=O)N[C@H](CCC(=O)O)C(=O)N[C@H](C(=O)N[C@H]2CCCCNC(=O)[C@H](CC(N)=O)NC(=O)[C@@H](CC(=O)O)NC(=O)[C@H](Cc3cnc[nH]3)NC(=O)[C@@H](Cc3ccccc3)NC(=O)[C@H]([C@@H](C)CC)NC(=O)[C@@H](CCCN)NC2=O)[C@@H](C)CC)CS1 [Bacitracin] ({Ileψ(thiazoline)Cys}-L[dE]IK[dOrn]I[dF]H[dD]N; lactam 4-C),MIC,ΔvraDE/ RN4220,2.5 µg/mL
same,MIC,ΔvraSR/ RN4220,5 µg/mL
same,MIC,S. aureus Newman [1],20 µg/mL
same,"Difference in MIC, ΔvraDE mutant versus wild-type",ΔvraDE/S. aureus Newman,about 10 fold
same,MIC,ΔvraDE/S. aureus Newman,2.5 µg/mL
same,MIC,S. aureus RN4220,20 µg/mL
same,Fold induction SA0205,S. aureus Newman [2],51.4 (0.8) fold
same,Fold induction groEL,S. aureus Newman [2],3.6 (0.1) fold
same,Fold induction prsA,S. aureus Newman [2],27.9 (4.5) fold
same,Fold induction vraD,S. aureus Newman [2],467.5 (15.3) fold
same,Fold induction SA0205,S. aureus Newman [2]; listed as bacitracin,30-50 fold
same,Fold induction prsA,S. aureus Newman [2]; listed as bacitracin,30-50 fold
same,Fold induction vraD,S. aureus Newman [2]; listed as bacitracin,~500 fold
same,"Difference in MIC (increased sensitivity), ΔvraSR mutant versus wild-type",ΔvraSR/S. aureus Newman,4 fold
same,MIC,ΔvraSR/S. aureus Newman,5 µg/mL
CCCCCCCCCC(=O)N[C@@H](Cc1c[nH]c2ccccc12)C(=O)N[C@H](CC(N)=O)C(=O)N[C@@H](CC(=O)O)C(=O)N[C@@H]1C(=O)NCC(=O)N[C@@H](CCCN)C(=O)N[C@@H](CC(=O)O)C(=O)N[C@H](C)C(=O)N[C@@H](CC(=O)O)C(=O)NCC(=O)N[C@H](CO)C(=O)N[C@@H]([C@H](C)CC(=O)O)C(=O)N[C@@H](CC(=O)c2ccccc2N)C(=O)O[C@@H]1C [Daptomycin],MIC,ΔvraDE/ RN4220,2.5 µg/mL
same,MIC,ΔvraSR/ RN4220,2.5 µg/mL
same,MIC,S. aureus Newman [1],2.5 µg/mL
same,MIC,ΔvraDE/S. aureus Newman,2.5 µg/mL
same,MIC,S. aureus RN4220,2.5 µg/mL
same,Effect of the ΔvraSR mutation on sensitivity,ΔvraSR/S. aureus Newman,did not affect the sensitivity
same,MIC,ΔvraSR/S. aureus Newman,2.5 µg/mL
O=C(O)CN(CCOCCOCCN(CC(=O)O)CC(=O)O)CC(=O)O [EGTA],Growth of wild-type strain in the presence of the antimicrobial,[3],grew significantly
CO/N=C(\C(=O)N[C@@H]1C(=O)N2C(C(=O)O)=C(COC(C)=O)CS[C@H]12)c1csc(N)n1 [cefotaxime],Growth of wild-type strain in the presence of the antimicrobial,[3],grew significantly
CN(C)CCCN1c2ccccc2Sc2ccc(Cl)cc21 [chlorpromazine],Growth of wild-type strain in the presence of the antimicrobial,[3],grew significantly
"A(D-Glu)K(D-Ala)GGGGGA(D-Glu)K(D-Ala) [Pentaglysin, pentaglycin peptide which mimics the peptide cross-link of S. aureus peptidoglycan]",Antimicrobial activity at the concentration used,S. aureus Newman [1]; 20 μg/ml,not antimicrobial
same,"Induction of vraD, SA0205, prsA and groEL (in words)",S. aureus Newman [2]; 20 μg/ml,did not induce any of the four genes
same,Fold induction SA0205,S. aureus Newman [2],1.3 (0.1) fold
same,Fold induction groEL,S. aureus Newman [2],1.1 (0.0) fold
same,Fold induction prsA,S. aureus Newman [2],1.3 (0.0) fold
same,Fold induction vraD,S. aureus Newman [2],1.0 (0.0) fold
ALWKTLLKKVLKAAAK-NH2 [Dermaseptin K4-S4(1-16)-NH2],Number of genes with decreased expression,S. aureus Newman [4],134 genes
same,Fold induction SA0336,S. aureus Newman [4]; n=3,"2.2, 2.1, 2.1 fold"
same,Fold induction SA0342,S. aureus Newman [4]; n=3,"2.2, 2.2 fold"
same,Fold induction SA0358,S. aureus Newman [4]; n=3,"2.4, 2.4 fold"
same,Fold induction SA0428,S. aureus Newman [4]; n=3,"2.3 fold and 3.6, 2.4, 2.3 fold"
same,Fold induction SA0526,S. aureus Newman [4]; n=3,"2.2, 2.0 fold"
same,Fold induction SA0591,S. aureus Newman [4]; n=3,"2.1 fold and 3.0, 3.3, 2.1 fold"
same,Fold induction SA0825 (spsA),S. aureus Newman [4]; n=3,"2.0 fold and 2.6, 3.5, 2.0 fold"
same,Fold induction SA0826 (spsB),S. aureus Newman [4]; n=3,"2.1, 2.7, 2.0 fold"
same,Fold induction SA0903,S. aureus Newman [4]; n=3,"2.6 fold and 2.1, 4.1, 2.6 fold"
same,Fold induction SA0914,S. aureus Newman [4]; n=3,"2.3, 2.5, 2.0 fold"
same,Fold induction SA0962,S. aureus Newman [4]; n=3,"2.4, 2.8, 2.4 fold"
same,Fold induction SA1184 (citB),S. aureus Newman [4]; n=3,"2.5, 2.4, 2.0 fold"
same,Fold induction SA1217,S. aureus Newman [4]; n=3,"3.0, 2.4 fold"
same,Fold induction SA1218 (pstB),S. aureus Newman [4]; n=3,2.9 fold
same,Fold induction SA1219,S. aureus Newman [4]; n=3,"4.2 fold and 5.4, 4.2 fold"
same,Fold induction SA1220,S. aureus Newman [4]; n=3,"2.3, 2.1 fold"
same,Fold induction SA1221,S. aureus Newman [4]; n=3,"3.1, 2.8 fold"
same,Fold induction SA1235,S. aureus Newman [4]; n=3,"2.4, 2.1, 2.6 fold"
same,Fold induction SA1476,S. aureus Newman [4]; n=3,"3.3 fold and 4.2, 5.3, 3.3 fold"
same,Fold induction SA1477,S. aureus Newman [4]; n=3,"5.5, 6.8, 3.8 fold"
same,Fold induction SA1517 (citC),S. aureus Newman [4]; n=3,"3.1 fold and 4.9, 5.8, 3.1 fold"
same,Fold induction SA1518 (citZ),S. aureus Newman [4]; n=3,"6.0, 6.7, 3.6 fold"
same,Fold induction SA1549 (htrA),S. aureus Newman [4]; n=3,"2.0 fold and 2.9, 3.0, 2.0 fold"
same,Fold induction SA1659 (prsA),S. aureus Newman [4]; n=3,"2.9 fold and 3.2, 4.5, 2.9 fold"
same,Fold induction SA1700 (vraR),S. aureus Newman [4]; n=3,"3.2, 5.0, 2.8 fold"
same,Fold induction SA1701 (vraS),S. aureus Newman [4]; n=3,"2.5 fold and 3.9, 5.3, 2.5 fold"
same,Fold induction SA1702,S. aureus Newman [4]; n=3,"4.3, 5.7, 2.6 fold"
same,Fold induction SA1703,S. aureus Newman [4]; n=3,"3.7, 4.2, 2.1 fold"
same,Fold induction SA1706,S. aureus Newman [4]; n=3,"2.0, 2.0, 2.1 fold"
same,Fold induction SA1710,S. aureus Newman [4]; n=3,"2.2, 2.4, 2.1 fold"
same,Fold induction SA1820,S. aureus Newman [4]; n=3,"2.2 fold and 3.6, 3.0, 2.2 fold"
same,Fold induction SA1836 (groEL),S. aureus Newman [4]; n=3,"2.2 fold and 3.8, 4.3, 2.2 fold"
same,Fold induction SA1837 (groES),S. aureus Newman [4]; n=3,"3.2, 3.6, 2.4 fold"
same,Fold induction SA1858 (ilvD),S. aureus Newman [4]; n=3,"4.9, 2.5, 2.1 fold"
same,Fold induction SA1860,S. aureus Newman [4]; n=3,"15.7, 4.3, 2.1 fold"
same,Fold induction SA1863 (leuB),S. aureus Newman [4]; n=3,"9.7, 4.2, 2.2 fold"
same,Fold induction SA1971,S. aureus Newman [4]; n=3,"2.2, 2.5, 2.2 fold"
same,Fold induction SA1990,S. aureus Newman [4]; n=3,"2.2 fold and 3.4, 2.6, 2.2 fold"
same,Fold induction SA2113,S. aureus Newman [4]; n=3,"2.2 fold and 2.2, 3.7, 2.2 fold"
same,Fold induction SA2301,S. aureus Newman [4]; n=3,"2.3, 2.2, 2.1 fold"
same,Fold induction SA2343,S. aureus Newman [4]; n=3,"2.7 fold and 4.3, 4.3, 2.7 fold"
same,Fold induction SA2481,S. aureus Newman [4]; n=3,"2.1, 3.1, 2.7 fold"
same,Fold induction SA2493 (vraE),S. aureus Newman [4]; n=3,"3.4, 11.8, 6.2 fold"
same,Fold induction SAS016,S. aureus Newman [4]; n=3,"5.4 fold and 5.0, 7.4, 5.4 fold"
FVQWFSKFLGRIL-NH2 [Temporin L-NH2],MIC,ΔvraDE/ RN4220,3 µg/mL
same,MIC,ΔvraSR/ RN4220,3 µg/mL
same,MIC,S. aureus Newman [1],6 µg/mL
same,MIC,ΔvraDE/S. aureus Newman,6 µg/mL
same,MIC,S. aureus RN4220,3 µg/mL
same,MIC,ΔvraSR/S. aureus Newman,6 µg/mL
KNLRRIIRKIIHIIKKYG-NH2 [Ovispirin-1-NH2],MIC,ΔvraDE/ RN4220,20 µg/mL
same,MIC,ΔvraSR/ RN4220,10 µg/mL
same,MIC,S. aureus Newman [1],20 µg/mL
same,MIC,ΔvraDE/S. aureus Newman,20 µg/mL
same,MIC,S. aureus RN4220,20 µg/mL
same,MIC,ΔvraSR/S. aureus Newman,10 µg/mL
KNLRRIIRKIIHIIKKYG-OH [Ovispirin-1],MIC,ΔvraDE/ RN4220,20 µg/mL
same,MIC,ΔvraSR/ RN4220,20 µg/mL
same,MIC,S. aureus Newman [1],20 µg/mL
same,MIC,ΔvraDE/S. aureus Newman,20 µg/mL
same,MIC,S. aureus RN4220,20 µg/mL
same,Fold induction SA0205,S. aureus Newman [2],5.1 (1.0) fold
same,Fold induction groEL,S. aureus Newman [2],2.5 (0.5) fold
same,Fold induction prsA,S. aureus Newman [2],7.2 (1.6) fold
same,Fold induction vraD,S. aureus Newman [2],3.7 (0.5) fold
same,Effect of the ΔvraSR mutation on sensitivity,ΔvraSR/S. aureus Newman,did not affect the sensitivity
same,MIC,ΔvraSR/S. aureus Newman,20 µg/mL
"LL-37: human cathelicidin (LLGDFFRKSKEKIGKEFKRIVQRIKDFLRNLVPRTES; Antibacterial peptide LL-37; UniProt P49913 134-170, looked up)",Effect of the ΔvraSR mutation on sensitivity,ΔvraSR/S. aureus Newman,did not affect the sensitivity
"Nisin: lantibiotic (ITSISLCTPGCKTGALMGCNMKTATCHCSIHVSK; also: lantibiotic, modified residues and thioether rings not given here; UniProt P13068 24-57, looked up)",MIC,S. aureus Newman [1],6.25 µg/mL
same,MIC,S. aureus RN4220,6.25 µg/mL
same,Effect of the ΔvraSR mutation on sensitivity,ΔvraSR/S. aureus Newman,did not affect the sensitivity
Teicoplanin,MIC,ΔvraSR/ RN4220,0.06 µg/mL
same,MIC,S. aureus Newman [1],0.5 µg/mL
same,MIC,ΔvraDE/S. aureus Newman,0.5 µg/mL
same,MIC,S. aureus RN4220,0.25 µg/mL
same,Fold induction SA0205,S. aureus Newman [2],35.7 (6.9) fold
same,Fold induction groEL,S. aureus Newman [2],3.0 (0.3) fold
same,Fold induction prsA,S. aureus Newman [2],32.1 (4.1) fold
same,Fold induction vraD,S. aureus Newman [2],2.5 (0.3) fold
same,"Difference in MIC (increased sensitivity), ΔvraSR mutant versus wild-type",ΔvraSR/S. aureus Newman,4 fold
same,MIC,ΔvraSR/S. aureus Newman,0.125 µg/mL
"hBD3 (GIINTLQKYYCRVRGGRCAVLSCLPKEEQIGKCSTRGRKCCRRKK; UniProt P81534 23-67, looked up)",Effect of the ΔvraSR mutation on sensitivity,ΔvraSR/S. aureus Newman,did not affect the sensitivity
